Measurements from a compilation of properties of binary mixtures (doi:10.1021/acs.iecr.6b02875).

Assay: xn = mol fraction of the nth substance listed
Conditions: 101 kPa; for electrical conductivity: 298.15 K

COCC[n+]1ccn(C)c1.O=S(=O)([N-]S(=O)(=O)C(F)(F)F)C(F)(F)F + O
x1 = 0.838
Conditions | viscosity [mPa·s]
293 K | 41.5
298.1 K | 33.3
303 K | 27.4
313 K | 19.4
323 K | 14.2
333 K | 10.7
343 K | 8.4
353 K | 6.7

COCCCn1cc[n+](C)c1.O=S(=O)([N-]S(=O)(=O)C(F)(F)F)C(F)(F)F + O
x1 = 0.8318
Conditions | viscosity [mPa·s]
293 K | 49.6
298.1 K | 39.7
303 K | 32.1
313 K | 22.1
323 K | 15.9
333 K | 11.8
343 K | 9.1
353 K | 7.1

Conditions | electrical conductivity [S/m]
x1 = 0.8318 | 0.44

CCOCC[n+]1ccn(C)c1.O=S(=O)([N-]S(=O)(=O)C(F)(F)F)C(F)(F)F + O
x1 = 0.8421
Conditions | viscosity [mPa·s]
293 K | 42.4
303 K | 27.8
313 K | 19.5
323 K | 14.2
333 K | 10.7
343 K | 8.3
353 K | 6.5

Conditions | electrical conductivity [S/m]
x1 = 0.8421 | 0.499

COC[n+]1ccn(C)c1.O=S(=O)([N-]S(=O)(=O)C(F)(F)F)C(F)(F)F + O
x1 = 0.8281
Conditions | viscosity [mPa·s]
293 K | 48.3
298.1 K | 38.4
303 K | 31.1
313 K | 21.4
323 K | 15.4
333 K | 11.4
343 K | 8.8
353 K | 7

Conditions | electrical conductivity [S/m]
x1 = 0.8281 | 0.594

COC[n+]1ccccc1.O=S(=O)([N-]S(=O)(=O)C(F)(F)F)C(F)(F)F + O
x1 = 0.8484
Conditions | viscosity [mPa·s]
283 K | 75.6
293 K | 46.3
313 K | 21.7
323 K | 15.8
343 K | 9.4
353 K | 7.5

CCCOCCn1cc[n+](C)c1.O=S(=O)([N-]S(=O)(=O)C(F)(F)F)C(F)(F)F + O
x1 = 0.8308
Conditions | viscosity [mPa·s]
293 K | 48
303 K | 31.6
313 K | 21.9
323 K | 15.9
333 K | 12
343 K | 9.2
353 K | 7.3

Conditions | electrical conductivity [S/m]
x1 = 0.8308 | 0.404

CCOCn1cc[n+](C)c1.O=S(=O)([N-]S(=O)(=O)C(F)(F)F)C(F)(F)F + O
x1 = 0.8413
Conditions | viscosity [mPa·s]
283 K | 81.6
293 K | 48.9
298.1 K | 38.8
303 K | 31.4
313 K | 21.6
323 K | 15.7
343 K | 9.1
353 K | 7.2

Conditions | electrical conductivity [S/m]
x1 = 0.8413 | 0.504
